Drawing on PubChem BioAssay (NCI), this text covers GI50 and TGI for 9 molecules.

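Five concentrations, 48 hours, 96-well plates. At the GI50, growth is halved. TGI marks complete inhibition of growth.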

Some test systems named below: UO-31 renal; SF-295 CNS; BT-549 breast; NCI-H522 lung; HS 578T breast; TK-10 renal; PC-3 prostate; A549 NSCLC; MCF7 breast; OVCAR-8 ovarian.
Experiment in all cases: growth of human tumour cells (NCI), 48 h

For the molecule `O=C(CCCc1ccc(N(CCCl)CCCl)cc1)NCc1ccccc1`, the GI50 in the assay on UO-31 renal was 5.43 µM; in the assay with SF-295 CNS, 3.23 µM; in the assay with BT-549 breast it was 3.86 µM; in the assay with NCI-H522 lung, 6.42 µM; in the assay on HS 578T breast, 15.6 µM; with TK-10 renal, 15.5 µM. Also, the GI50 in the assay on PC-3 prostate was 12.1 µM; in the assay with A549 NSCLC, 6.88 µM; in the assay on MCF7 breast, 3.08 µM; with OVCAR-8 ovarian, 8.11 µM. Moreover, the TGI with UO-31 renal was 39.1 µM; in the assay on SF-295 CNS it was 28.6 µM; in the assay on BT-549 breast, 27.2 µM; in the assay with NCI-H522 lung it was 24.5 µM; in the assay on HS 578T breast it was above 100 µM; in the assay with TK-10 renal, 56.8 µM. Besides, the TGI is 73.9 µM in the assay with PC-3 prostate, above 100 µM in the assay with A549 NSCLC, above 100 µM in the assay on MCF7 breast and above 100 µM in the assay with OVCAR-8 ovarian.

Consider `Cc1c2cnccc2c(C)c2c1c1ccccc1n2CCOC(=O)c1ccccc1`, for which the TGI is 15.3 µM in the assay on UO-31 renal; 33 µM with SF-295 CNS; above 100 µM in the assay with BT-549 breast; 31.1 µM in the assay with NCI-H522 lung; 84.6 µM in the assay with HS 578T breast; 40.9 µM in the assay on TK-10 renal. In addition, the TGI was above 100 µM in the assay on PC-3 prostate, 43.1 µM in the assay on A549 NSCLC, 44.1 µM with MCF7 breast and 26.9 µM in the assay on OVCAR-8 ovarian.

Take `CC1CCCCCC(=O)c2c(O)cc(O)cc2CC(=O)O1` (stereo not given): the TGI with UO-31 renal, with SF-295 CNS, with BT-549 breast, in the assay on NCI-H522 lung, in the assay on HS 578T breast and with TK-10 renal was above 100 µM in each case. For the same molecule, the TGI with PC-3 prostate, in the assay with A549 NSCLC, in the assay on MCF7 breast and with OVCAR-8 ovarian was above 100 µM each time.

As to `Cn1cc(C2=C(c3ccsc3)C(=O)NC2=O)c2ccccc21`, the GI50 with UO-31 renal is 8.49 µM; with SF-295 CNS, above 25 µM; in the assay on BT-549 breast it was above 25 µM; in the assay with NCI-H522 lung, above 25 µM; in the assay with HS 578T breast it was above 25 µM; with TK-10 renal it was above 25 µM. Further, the GI50 was above 25 µM with PC-3 prostate, above 25 µM with A549 NSCLC, 1.58 µM in the assay with MCF7 breast and above 25 µM with OVCAR-8 ovarian. Moreover, the TGI with UO-31 renal, with SF-295 CNS, with BT-549 breast, with NCI-H522 lung, in the assay on HS 578T breast and in the assay with TK-10 renal was above 25 µM each time. In addition, the TGI with PC-3 prostate, in the assay with A549 NSCLC, with MCF7 breast and in the assay on OVCAR-8 ovarian was above 25 µM in each case.

With `O=C(O)c1ccc(N(/C=C/C(=O)C(F)(F)F)Cc2ccc(Cl)cc2)cc1`, the GI50 in the assay on UO-31 renal is 1.19 µM; in the assay with SF-295 CNS, 26.6 µM; in the assay with BT-549 breast it was 38.7 µM; with NCI-H522 lung it was 19.9 µM; in the assay on HS 578T breast, 26.4 µM; in the assay with TK-10 renal it was 27 µM. In addition, the GI50 in the assay with PC-3 prostate was 37.9 µM; in the assay with A549 NSCLC it was 34.9 µM; in the assay on MCF7 breast it was above 100 µM; in the assay with OVCAR-8 ovarian, 26.1 µM. Moreover, the TGI in the assay on UO-31 renal is 15.7 µM; with SF-295 CNS, 67 µM; in the assay on BT-549 breast it was 67 µM; with NCI-H522 lung it was 61.9 µM; in the assay with HS 578T breast, 84.7 µM; with TK-10 renal, 60.8 µM. Besides, the TGI is above 100 µM in the assay with PC-3 prostate, above 100 µM with A549 NSCLC, above 100 µM in the assay with MCF7 breast and 78.4 µM in the assay on OVCAR-8 ovarian.

Regarding `O=C(O)/C=C\C(=O)Nc1ccc2c(c1)-c1ccccc1C2`, the TGI in the assay on UO-31 renal, in the assay with SF-295 CNS, in the assay with BT-549 breast, with NCI-H522 lung, in the assay on HS 578T breast and in the assay on TK-10 renal was above 100 µM in each case. In addition, the TGI with PC-3 prostate, in the assay with A549 NSCLC, in the assay with MCF7 breast and with OVCAR-8 ovarian was above 100 µM in each case.

Turning to `COC(=O)N[C@H]1CCc2cc(OC)c(OC)c(OC)c2-c2ccc(SC)c(=O)cc21`, the GI50 in the assay on UO-31 renal is below 0.0447 µM; in the assay with SF-295 CNS, below 0.01 µM; in the assay with BT-549 breast, below 0.01 µM; in the assay on NCI-H522 lung, below 0.01 µM; with HS 578T breast it was below 0.01 µM; in the assay on TK-10 renal, 13.1 µM. The GI50 with PC-3 prostate, in the assay with A549 NSCLC, with MCF7 breast and in the assay with OVCAR-8 ovarian was below 0.01 µM in each case. For the same molecule, the TGI with UO-31 renal was above 100 µM; in the assay on SF-295 CNS it was 27.1 µM; in the assay on BT-549 breast, 11 µM; in the assay with NCI-H522 lung it was above 19.9 µM; in the assay on HS 578T breast, above 100 µM; in the assay with TK-10 renal it was above 100 µM. The TGI with PC-3 prostate, in the assay with A549 NSCLC, in the assay with MCF7 breast and in the assay on OVCAR-8 ovarian was above 100 µM in each case.

As to `COc1cc2cc(NCc3cccc(Cl)c3)nc(C)c2cc1OC`, the GI50 in the assay on UO-31 renal was 0.678 µM; with SF-295 CNS it was 0.513 µM; with BT-549 breast, 1.47 µM; with NCI-H522 lung, 1.01 µM; in the assay with HS 578T breast it was 4.87 µM; with TK-10 renal it was 4.15 µM. For the same molecule, the GI50 was 3.14 µM with PC-3 prostate, 3.21 µM in the assay with A549 NSCLC, 4.72 µM in the assay on MCF7 breast and 3.04 µM in the assay on OVCAR-8 ovarian. The TGI was determined as 14.4 µM with UO-31 renal; 16.8 µM with SF-295 CNS; 8.96 µM in the assay with BT-549 breast; 10.4 µM in the assay on NCI-H522 lung; 56.7 µM in the assay on HS 578T breast; 36.6 µM with TK-10 renal. The TGI in the assay with PC-3 prostate amounted to 23.7 µM; with A549 NSCLC it was 37.6 µM; with MCF7 breast, 23 µM; in the assay on OVCAR-8 ovarian, 23.6 µM.

Take `O=C1NC(=O)C(c2c[nH]c3ccccc23)=C1c1c[nH]c2ccccc12`: the GI50 in the assay with UO-31 renal was 3.08 µM; with SF-295 CNS it was 13.3 µM; with BT-549 breast, 10.3 µM; in the assay on NCI-H522 lung it was 8.11 µM; in the assay on HS 578T breast it was 5.56 µM; in the assay with TK-10 renal it was 19.2 µM. Besides, the GI50 was 10.2 µM in the assay on PC-3 prostate, 10.7 µM in the assay on A549 NSCLC, 9.32 µM with MCF7 breast and 15.8 µM in the assay with OVCAR-8 ovarian. For the same molecule, the TGI with UO-31 renal, with SF-295 CNS, in the assay on BT-549 breast, in the assay on NCI-H522 lung, in the assay with HS 578T breast and in the assay on TK-10 renal was above 25 µM each time. Moreover, the TGI in the assay on PC-3 prostate, in the assay with A549 NSCLC, in the assay with MCF7 breast and in the assay on OVCAR-8 ovarian was above 25 µM throughout.
